# Measurements: patent US20080227655A1, “Assessment of effect of an agent on a human biological condition using rodent gene expression panels” (priority 2006, published 2008)
# Several values for one entry are separate records, joined by “and”; a condition that tells them apart may be missing. Equal values may be shown once.
# System: custom murine 40-gene Precision Profile for Rheumatoid Arthritis, whole blood
# Assay: KRN (K/BxN) serum transfer induced arthritis model, whole blood gene expression by QPCR, vehicle or dexamethasone treatment
# Assay type: in vivo, female BALB/c mice
# Details: for ABCA1_M Normalized CT Value (Delta CT) / APAF1_M Normalized CT Value (Delta CT) / ARG2_M Normalized CT Value (Delta CT) / CASP1_M Normalized CT Value (Delta CT) / CASP3_M Normalized CT Value (Delta CT) / CCR3_M Normalized CT Value (Delta CT) / CD3Z_M Normalized CT Value (Delta CT) / CD8A_M Normalized CT Value (Delta CT) / CD14_M Normalized CT Value (Delta CT) / CD19_M Normalized CT Value (Delta CT) / CD86_M Normalized CT Value (Delta CT) / CSPG2_M Normalized CT Value (Delta CT) / F3_M Normalized CT Value (Delta CT) / HMOX1_M Normalized CT Value (Delta CT) / HSPA1A—M Normalized CT Value (Delta CT) / ICAM1—M Normalized CT Value (Delta CT) / IFI16—M Normalized CT Value (Delta CT) / IL1B_M Normalized CT Value (Delta CT) / IL10_M Normalized CT Value (Delta CT): whole blood
# Description: Whole blood gene expression changes were evaluated in vehicle control and drug-treated murine subjects across two murine models of arthritis according to the following arthritis models:
# KRN Transgenic Mouse (K/B×N): K/B×N serum from transgenic mouse used to induce arthritis in female BALB/c mice (n=54). Collagen Induced Arthritis (CIA): Bovine type II collagen used to induce arthritis in male DBA/1 mice (n=54).
# In addition, naïve, untreated animal groups at baseline and terminal day were included to control for potential age-related changes in gene expression over the extended study periods. Animal groups, time-points, and treatment schedules are summarized in Tables 20A and 20B, respectively.
# Whole blood samples from animals were collected by retro-orbital bleed at selected time-points in accordance with the arthritis study schemas described in […], and transferred into sample collection tubes containing a 1.5× lysis solution and RPMI. Samples were processed into total RNA and cDNA. […] It was anticipated from these murine models would provide a better understanding of the relevant molecular response of arthritis induction and their potential correlation to the human disease condition.
# Normal murine subject reference values (represented as normalized Ct or ΔCt values) were established for male DBA/1 mice (n=6 for the CIA study arm) and female BALB/c mice (n=6 for the KRN study arm). In both arms of the study, gene expression response of normal (naïve, non-immunized and untreated) murine subjects were evaluated in groups of 6 each at day 0 and day 60 for the CIA study arm, and at day 0 and day 21 for the KRN study arm (see Tables 20A and 20B).
# Gene expression responses for the arthritis-induced murine model were evaluated for untreated mice at day 3 and vehicle-treated mice at days 7, 14 and 21 to characterize disease progression.
# [1] = KRN Day 14, Dex-treated, individual murine subject
# [2] = KRN Day 14, Dex-treated, individual murine subject, listed as Dex
# [3] = KRN Day 14 Dex, individual mouse, listed as Dex
# [4] = KRN Day 21, Dex-treated, group Average
# [5] = KRN Day 21, Dex-treated, individual murine subject, listed as Dex
# [6] = KRN Day 21 Dex, individual mouse, listed as Dex
smiles,measurement,setting,value
C[C@@H]1C[C@H]2[C@@H]3CCC4=CC(=O)C=C[C@]4(C)[C@@]3(F)[C@@H](O)C[C@]2(C)[C@@]1(O)C(=O)CO [Dexamethasone],Normalized CT Value (Delta CT) TLR4_M,[1],18.49
same,Normalized CT Value (Delta CT) TNFSF5—M,[1],19.61
same,Normalized CT Value (Delta CT) TNF_M,[1],20.58
same,Normalized CT Value (Delta CT) VEGF_M,[1],20.76
same,Normalized CT Value (Delta CT) IL1RAP_M,[2],18.49 and 19.00 and 18.48 and 18.13 and 18.59 and 18.81
same,Normalized CT Value (Delta CT) IL1RN—M,[2],17.70 and 17.88 and 17.80 and 17.59 and 17.72 and 17.52
same,Normalized CT Value (Delta CT) IL6_M,[2],25.39 and 25.69 and 25.54 and 25.34 and 25.89 and 25.05
same,Normalized CT Value (Delta CT) JUN_M,[2],19.76 and 19.88 and 19.77 and 19.35 and 19.58 and 19.68
same,Normalized CT Value (Delta CT) MEF2C—M,[2],20.59 and 19.97 and 20.74 and 19.83 and 20.88 and 19.95
same,Normalized CT Value (Delta CT) MMP9—M,[2],14.51 and 14.33 and 14.28 and 14.07 and 14.70 and 14.83
same,Normalized CT Value (Delta CT) NFKB1—M,[2],17.37 (2×) and 17.12 and 17.30 and 16.77 and 17.79
same,Normalized CT Value (Delta CT) PADI4—M,[2],18.74 and 18.78 and 18.81 and 18.39 and 18.98 and 19.03
same,Normalized CT Value (Delta CT) PLA2G7—M,[2],15.31 and 15.29 and 15.04 and 14.93 and 15.33 and 15.36
same,ABCA1_M Normalized CT Value (Delta CT),"KRN Day 14 Dex, group Average",18.74
same,APAF1_M Normalized CT Value (Delta CT),"KRN Day 14 Dex, group Average",19.47
same,ARG2_M Normalized CT Value (Delta CT),"KRN Day 14 Dex, group Average",17.37
same,CASP1_M Normalized CT Value (Delta CT),"KRN Day 14 Dex, group Average",19.02
same,CASP3_M Normalized CT Value (Delta CT),"KRN Day 14 Dex, group Average",17.77
same,CCR3_M Normalized CT Value (Delta CT),"KRN Day 14 Dex, group Average",19.21
same,CD3Z_M Normalized CT Value (Delta CT),"KRN Day 14 Dex, group Average",17.27
same,CD8A_M Normalized CT Value (Delta CT),"KRN Day 14 Dex, group Average",18.32
same,CD14_M Normalized CT Value (Delta CT),"KRN Day 14 Dex, group Average",19.94
same,CD19_M Normalized CT Value (Delta CT),"KRN Day 14 Dex, group Average",17.52
same,CD86_M Normalized CT Value (Delta CT),"KRN Day 14 Dex, group Average",23.30
same,CSPG2_M Normalized CT Value (Delta CT),"KRN Day 14 Dex, group Average",20.94
same,F3_M Normalized CT Value (Delta CT),"KRN Day 14 Dex, group Average",23.16
same,HMOX1_M Normalized CT Value (Delta CT),"KRN Day 14 Dex, group Average",18.18
same,HSPA1A—M Normalized CT Value (Delta CT),"KRN Day 14 Dex, group Average",21.59
same,ICAM1—M Normalized CT Value (Delta CT),"KRN Day 14 Dex, group Average",19.42
same,IFI16—M Normalized CT Value (Delta CT),"KRN Day 14 Dex, group Average",17.45
same,IL1B_M Normalized CT Value (Delta CT),"KRN Day 14 Dex, group Average",14.29
same,IL10_M Normalized CT Value (Delta CT),"KRN Day 14 Dex, group Average",25.56
same,ABCA1_M Normalized CT Value (Delta CT),[3],18.85 and 18.64 and 18.31 and 18.46 and 19.46 and 18.75
same,APAF1_M Normalized CT Value (Delta CT),[3],19.78 and 19.62 and 19.16 and 19.37 and 19.43
same,ARG2_M Normalized CT Value (Delta CT),[3],17.30 and 17.84 and 17.05 and 16.89 and 17.70 and 17.43
same,CASP1_M Normalized CT Value (Delta CT),[3],19.00 and 18.87 and 18.99 and 19.15 and 19.23 and 18.90
same,CASP3_M Normalized CT Value (Delta CT),[3],17.98 and 17.63 and 17.87 and 17.16 and 17.93 and 18.06
same,CCR3_M Normalized CT Value (Delta CT),[3],19.56 and 18.34 and 19.23 and 18.45 and 19.90 and 19.79
same,CD3Z_M Normalized CT Value (Delta CT),[3],17.27 and 17.38 and 17.23 and 16.92 and 18.16 and 16.68
same,CD8A_M Normalized CT Value (Delta CT),[3],18.76 and 18.05 and 18.11 and 17.83 and 19.21 and 17.94
same,CD14_M Normalized CT Value (Delta CT),[3],19.50 and 20.04 and 19.93 and 20.22 and 19.63 and 20.29
same,CD19_M Normalized CT Value (Delta CT),[3],17.84 and 17.32 (2×) and 18.33 and 17.39
same,CD86_M Normalized CT Value (Delta CT),[3],23.63 and 23.21 and 23.28 and 22.53 and 23.60 and 23.56
same,CSPG2_M Normalized CT Value (Delta CT),[3],21.74 and 21.15 and 20.43 and 21.79 and 19.79 and 20.71
same,F3_M Normalized CT Value (Delta CT),[3],22.18 and 23.66 and 21.85 and 24.55 and 21.66 and 25.05
same,HMOX1_M Normalized CT Value (Delta CT),[3],17.83 and 18.22 and 17.82 and 18.09 and 18.31 and 18.81
same,HSPA1A—M Normalized CT Value (Delta CT),[3],21.44 and 22.20 and 21.91 and 21.55 and 20.95 and 21.51
same,ICAM1—M Normalized CT Value (Delta CT),[3],19.58 and 19.31 and 19.39 and 19.05 and 19.89 and 19.28
same,IFI16—M Normalized CT Value (Delta CT),[3],17.64 and 17.26 and 17.87 and 16.81 and 18.04 and 17.08
same,IL1B_M Normalized CT Value (Delta CT),[3],14.31 and 14.48 (2×) and 14.19 and 14.00 and 14.25
same,IL10_M Normalized CT Value (Delta CT),[3],25.62 and 25.82 and 25.58 and 25.54 and 25.73 and 25.10
same,Normalized CT Value (Delta CT) IL1RAP_M,[4],19.02
same,Normalized CT Value (Delta CT) IL1RN—M,[4],18.13
same,Normalized CT Value (Delta CT) IL6_M,[4],25.28
same,Normalized CT Value (Delta CT) JUN_M,[4],20.06
same,Normalized CT Value (Delta CT) MEF2C—M,[4],20.90
same,Normalized CT Value (Delta CT) MMP9—M,[4],15.04
same,Normalized CT Value (Delta CT) NFKB1—M,[4],17.69
same,Normalized CT Value (Delta CT) PADI4—M,[4],18.92
same,Normalized CT Value (Delta CT) PLA2G7—M,[4],15.50
same,Normalized CT Value (Delta CT) IL1RAP_M,[5],19.08 and 19.03 and 18.86 and 19.29 and 18.97 and 18.89
same,Normalized CT Value (Delta CT) IL1RN—M,[5],17.95 (2×) and 18.43 and 17.84 and 18.46 and 18.15
same,Normalized CT Value (Delta CT) IL6_M,[5],25.40 and 25.42 and 24.75 and 25.06 and 25.35 and 25.72
same,Normalized CT Value (Delta CT) JUN_M,[5],20.06 and 20.45 and 20.53 and 19.72 and 19.52
same,Normalized CT Value (Delta CT) MEF2C—M,[5],21.26 (2×) and 20.26 and 21.57 and 20.41 and 20.64
same,Normalized CT Value (Delta CT) MMP9—M,[5],15.23 and 14.73 and 15.36 and 15.08 and 14.79
same,Normalized CT Value (Delta CT) NFKB1—M,[5],17.74 and 18.12 and 17.25 and 18.27 and 17.28 and 17.46
same,Normalized CT Value (Delta CT) PADI4—M,[5],19.00 and 18.36 and 19.37 and 18.97 and 19.13 and 18.69
same,Normalized CT Value (Delta CT) PLA2G7—M,[5],15.27 and 15.70 and 15.34 and 15.67 and 15.86 and 15.15
same,ABCA1_M Normalized CT Value (Delta CT),"KRN Day 21 Dex, group Average",19.00
same,APAF1_M Normalized CT Value (Delta CT),"KRN Day 21 Dex, group Average",19.85
same,ARG2_M Normalized CT Value (Delta CT),"KRN Day 21 Dex, group Average",17.59
same,CASP1_M Normalized CT Value (Delta CT),"KRN Day 21 Dex, group Average",19.48
same,CASP3_M Normalized CT Value (Delta CT),"KRN Day 21 Dex, group Average",18.35
same,CCR3_M Normalized CT Value (Delta CT),"KRN Day 21 Dex, group Average",19.66
same,CD3Z_M Normalized CT Value (Delta CT),"KRN Day 21 Dex, group Average",17.38
same,CD14_M Normalized CT Value (Delta CT),"KRN Day 21 Dex, group Average",20.44
same,CD19_M Normalized CT Value (Delta CT),"KRN Day 21 Dex, group Average",17.72
same,CD86_M Normalized CT Value (Delta CT),"KRN Day 21 Dex, group Average",23.73
same,ABCA1_M Normalized CT Value (Delta CT),[6],19.52 and 19.29 and 18.57 and 19.09 and 18.61 and 18.92
same,APAF1_M Normalized CT Value (Delta CT),[6],19.76 and 19.88 and 19.81 and 20.29 and 19.46 and 19.93
same,ARG2_M Normalized CT Value (Delta CT),[6],17.45 and 17.78 and 17.56 and 17.29 and 18.09 and 17.36
same,CASP1_M Normalized CT Value (Delta CT),[6],19.34 and 19.90 and 19.57 and 19.28 and 19.50 and 19.31
same,CASP3_M Normalized CT Value (Delta CT),[6],18.21 and 18.52 (2×) and 18.24 and 18.02 and 18.60
same,CCR3_M Normalized CT Value (Delta CT),[6],19.82 and 19.72 and 19.20 and 19.52 and 20.10 and 19.60
same,CD3Z_M Normalized CT Value (Delta CT),[6],17.32 and 17.40 and 17.14 and 17.66 and 17.04 and 17.71
same,CD14_M Normalized CT Value (Delta CT),[6],20.25 and 21.24 and 20.59 and 20.09 and 20.44 and 20.03
same,CD19_M Normalized CT Value (Delta CT),[6],18.44 and 17.98 and 17.64 and 18.11
same,CD86_M Normalized CT Value (Delta CT),[6],23.89 and 23.61 and 23.63 and 24.02 and 23.14 and 24.11
